From patent US20110230447A1, “OSTEOGENESIS PROMOTER COMPRISING [4-(METHYLTHIO)PHENYLTHIO]METHANEBISPHOSPHONIC ACID OR PHARMACEUTICALLY ACCEPTABLE SALT THEREOF AS ACTIVE INGREDIENT” (Tohoku University, priority 2008, published 2011)
Entries after “also recorded” stand apart in the source; their conditions may differ.

Columns and labels:
MC3T3-E1 cells [1] = assay: Alkaline phosphatase (ALP) activity in osteoblast-like MC3T3-E1 cells; format: cell-based, mouse
Method: FIG. 4 is an effect of MPMBP (1, 10, and 100 μM) on the osteoblast lineage cell lines MC3T3-E1 cells.
FIG. 5 is an effect of bisphosphonate ([…] bisphosphonate, namely pamidronate, incadronate, and zoledronate. Respectively, 0.1, 1, and 10 μM) on the osteoblast-like cell line MC3T3-E1 cells.
Using the mouse skull-derived osteoblast-like cell line MC3T3-E1 cells (RIKEN Bio Resource Center, CELL BANK: RCB 1126), with respect to the alkaline phosphatase (ALP) activity, known as one index of osteogenesis, and also known as the index of differentiation of osteoblast precursor cells to osteoblasts, what kind of effects MPMBP has was studied. After MC3T3-E1 cells were cultured in a α-MEM (10% bovine serum supplementation) and after the confluent was reached, under the presence or absence of MPMBP (1, 10, and 100 μM), for 6, 10, or 20 days, they were cultured in the culture plate of 48 wells. After completion of culturing, a cell homogenate was prepared, and using the method by Lowry et al (J Biochem 1954; 207: 19-37), the ALP activity (per well) was measured.

[2] = system: calvariae (bone organ culture system of a mouse); assay: Bone organ culture system of mouse calvariae, staining and confocal laser scanning microscopy; format: cell-based; details: for production of the type I collagen / bone matrix: zoledronate 2.5 μM compared with MPMBP, presence or absence of LPS (FIG. 8); for production of collagen (type I collagen fibers): MPMBP 100 μM, alendronate 2.0 μM, no heparin, vs control bone (FIG. 9); for bone resorption resulting from LPS, size of the resorption cavity: Nomarski images
Method: Using the bone organ culture system, what kind of effects MPMBP has on production of the bone matrix was studied. From 3-6 day old mice, calvariae were collected aseptically. These were cultured using the Stern and Krieger method (Calcif Tissue hit 1983; 35: 172-17) with DMEM (10% bovine serum supplementation, no supplementation of heparin, supplementation or no supplementation of LPS 10 μg/ml) for 48 hours. After completion of culturing, with the method described by Suzuki, Takeyama et al (J Histochem Cytochem 2005; 53: 1525-1537), a double staining of the type I collagen and alkaline phosphatase (FIG. 6 and FIG. 8), a double staining of the type I collagen and alizarin red (FIG. 7), and an immunohistochemical staining using the type I collagen (FIG. 9) were performed, and using a confocal laser scanning microscope, they were observed.
The upper panels are Nomarski differential interference contrast images of the bone surface. The middle panels are images of the bone surface after the double staining of the type I collagen and alkaline phosphatase was performed, and the lower panels are images of the bone section after the double staining of the type I collagen and alkaline phosphatase was performed, respectively. Using rhodamine for the type I collagen, red color could be observed, and using a substrate (ELF-97) that fluoresces when dephosphorylated for alkaline phosphatase (stain osteoblasts), the enzyme activity could be observed in green color.
The upper panels are Nomarski differential interference contrast images of the bone surface. […] The lower panels are images of the bone section after the double staining of the type I collagen and alizarin red was performed, and the collagen fibers could be observed in green color resulting from Alexa Fluor-488 and the bone mineral could be observed in red color resulting from alizarin red.
After the immunological double staining of the type I collagen and alkaline phosphatase was performed, as was the case with FIG. 6, using Alexa Fluor 594 for the type I collagen, it was stained in red color, and using the substrate (ELF-97) that fluoresces when dephosphorylated for alkaline phosphatase (osteoblasts), the enzyme activity was stained in green color. The upper panels are observation images of the bone surface and the lower panels are images of the bone section.

MC3T3-E1 cells [3] = assay: Expression of osteogenesis-related genes in MC3T3-E1 cells by real-time RT-PCR; format: cell-based, mouse
Source text: As an experiment to clarify the mechanism of the osteogenesis promoting action of MPMBP, using the osteoblast-based cell line MC3T3-E1 cells, the effect on expression of osteogenesis-related genes was studied using the real-time RT-PCR method. Moreover, the effect was compared with the action of zoledronate.
In the experiment, the osteoblast-based cell line MC3T3-E1 cells that reached the confluent after cultured with α-MEM (10% bovine serum supplementation) were used. For 3 days, they were cultured (used a dish with the diameter of 60 mm) under the presence of MPMBP (1, 10, or 100 μM) or zoledronate (0.1, 0.5 or 2.00 μM). After completion of culturing, cells were scraped and using Trizol, RNA was extracted. From 5 μg of RNA, cDNA was synthesized, specific primers were set with respect to alkaline phosphatase, the type I-α collagen, osteocalcin, and bone sialoprotein genes, PCR amplification was performed in the thermal cycler, and the amount of expression of the above genes was measured.

[4] = system: maxillary alveolar bone of a rabbit; assay: Local subperiosteal injection at the maxillary alveolar bone of rabbits, pQCT and μCT analysis; format: in vivo
Method: FIG. 2 is a proliferation of the bone induced on the maxillary alveolar bone of a rabbit resulting from local administration of MPMBP (administration of a 1 mM or 10 mM solution every 4 days for 6 times). (pQCT: peripheral Quantitative Computerized Tomography image). A horizontal section in the vicinity of the cervical site of the maxillary molar teeth. Exp: A test side (side to which MPMBP was administered), cont: a control side (side to which 0.9% NaCl was administered). Arrows represent injected sites.
FIG. 3 is a proliferation of the bone induced on the maxillary alveolar bone of a rabbit resulting from local administration of MPMBP (administration of a 1 mM or 10 mM solution every 4 days for 6 times) (μCT image: microfocus Computerized Tomography image). A forehead cut of the midline region of the right and left maxillary first molars. exp: A test side (side to which MPMBP was administered). cont: A control side (side to which 0.9% NaCl was administered).
A total of 9 Japanese male rabbits with the average weight of 2.2 kg were used and they were divided into 3 groups of 3 rabbits each. Under the periosteum of the palatal alveolar bone between the teeth of the maxillary first molar and the maxillary second molar on the left side (experiment side) of the domestic rabbits in each group, 50 μl of a 0.1, 1.0, or 10 mM MPMBP solution was injected every 4 days for 6 times (all performed under anesthesia using Nembutal). To the same sites on the opposite side (the right side), 50 μl of a physiological saline solution (0.9% NaCl solution) was injected in the same manner, and was set to be a control. On the 4th day after the final injection, the animals were euthanized with excessive administration of Nembutal, and the maxillary bone was removed and fixed with a 10% neutral formalin solution (pH 7.4). With the alveolar bone in the vicinity of drug administration sites and the palatine bone as the region of interest, 3-dimensional analysis was performed using a pQCT (peripheral Quantitative Computerized Tomography; FIG. 2) and a μCT (microfocus Computerized Tomography; FIG. 3). […] This type of the osteogenesis promoting effect of MPMBP in the living body has not been reported with the existing bisphosphonate compound.

[5] = 0.1, 1 and 10 μM, culture up to 3 weeks (FIG. 5)
[6] = 1, 10 and 100 μM, cultured 6, 10 or 20 days (FIG. 4)
[7] = 50 μl of 1.0 mM or 10 mM solution under the periosteum every 4 days for 6 times, vs 0.9% NaCl on the opposite side

Q: How did the “ALP activity (per well)” value (MC3T3-E1 cells [1]; [5]) turn out when `O=P(O)(O)C(NC1CCCCCC1)P(=O)(O)O` [incadronate] was run?
A: Its value is “the alkaline phosphatase activity is inhibited or the alkaline phosphatase activity is not affected; also recorded: the ALP activity was significantly reduced in high concentration”.

Q: Which results are given for `O=P(O)(O)C(O)(Cn1ccnc1)P(=O)(O)O` [zoledronate, reference compound]?
A: ALP activity (per well) (MC3T3-E1 cells [1]; [5]): the alkaline phosphatase activity is inhibited or the alkaline phosphatase activity is not affected; also recorded: the ALP activity was significantly reduced in high concentration; production of the type I collagen / bone matrix ([2]; 48 hours): inhibited production of the type I collagen; expression of alkaline phosphatase, type I-α collagen, osteocalcin and bone sialoprotein genes (MC3T3-E1 cells [3]; zoledronate 0.1, 0.5 or 2.00 μM, 3 days (FIG. 11)): no significant change was caused to the amount of expression of these genes; expression of alkaline phosphatase, type I-α collagen, osteocalcin and bone sialoprotein genes (MC3T3-E1 cells [3]; zoledronate 0.1, 0.5 or 2.00 μM, 3 days (FIG. 11), listed as Zoledronate): did not significantly affect gene expression of all of the above

Q: How did the “production of collagen (type I collagen fibers)” value ([2]; 48 hours) turn out when `NCCCC(O)(P(=O)(O)O)P(=O)(O)O` [alendronate, reference compound] was run?
A: The value was “production of the collagen increased were observed; however, the degree was small, compared to MPMBP”.

Q: For `O=P(O)(O)C(Cl)(Cl)P(=O)(O)O` [clodronate], which “ALP activity (per well)” value (MC3T3-E1 cells [1]; [6]) is on record?
A: The value was “increase an alkaline phosphatase activity in a dose-dependent manner and with time; also recorded: increased the ALP activity”.

Q: Which “ALP activity (per well)” value (MC3T3-E1 cells [1]; [5]) does the source give for `NCCC(O)(P(=O)(O)O)P(=O)(O)O` [pamidronate] here?
A: Its value is “the alkaline phosphatase activity is inhibited or the alkaline phosphatase activity is not affected; also recorded: no significant change was observed”.

Q: Which results are given for `CSc1ccc(SC(P(=O)([O-])[O-])P(=O)(O)O)cc1.[Na+].[Na+]` [MPMBP, [4-(methylthio)phenylthio]-methanebisphosphonic acid.disodium salt]?
A: ALP activity (per well) (MC3T3-E1 cells [1]; [6]): increase an alkaline phosphatase activity in a dose-dependent manner and with time; also recorded: increased the ALP activity in a dose-dependent manner and with time; bone changes (osteogenesis promoting effect) in the 0.1 mM group ([4]; 0.1 mM, 50 μl every 4 days for 6 times): the effect was not clear; bone changes, 10 mM group compared to 1.0 mM group ([4]; 10 mM vs 1.0 mM, 50 μl every 4 days for 6 times): stronger for the 10 mM administration group; bone addition to the palatal side of the alveolar bone (proliferation of the alveolar bone), pQCT [4, 7]: a proliferation of the alveolar bone is observed; also recorded: bone addition to the palatal side of the alveolar bones; thickness of the palatine bone from the alveolar site to the middle of the palate, μCT [4, 7]: the thickness of the palatine bone is increasing; also recorded: the thickness of the palatine bone increased; bone resorption resulting from LPS, size of the resorption cavity ([2]; 48 hours, LPS, vs control bone (FIG. 7)): the bone resorption was inhibited resulting from LPS and the size of the resorption cavity that was formed from LPS was significantly smaller; also recorded: the bone resorption was inhibited resulting from LPS and the size of the resorption cavity that was formed by LPS was significantly small; production of the bone matrix (type I collagen, Alexa Fluor-488) ([2]; 48 hours, presence or absence of LPS, vs control bone (FIG. 7)): production of the bone matrix (sites in green color) was promoted significantly; also recorded: production of the bone matrix (sites in green color) significantly increased; thickness of the bone mineral (alizarin red) ([2]; 48 hours, vs control bone (FIG. 7)): the thickness of the bone mineral (sites in red color) was thick; production of the bone matrix (type I collagen) ([2]; MPMBP 25 μM, 48 hours, DMEM, presence or absence of LPS 10 μg/ml, vs control bone (FIG. 6)): production of the bone matrix (sites in red color) was promoted significantly; also recorded: production of the bone matrix (type I collagen: sites in red) significantly increased; bone resorption resulting from LPS, size of the resorption cavity ([2]; MPMBP 25 μM, 48 hours, LPS 10 μg/ml, vs control bone (FIG. 6)): the bone resorption was inhibited resulting from LPS and the size of a resorption cavity that was formed from LPS was significantly smaller; also recorded: the bone resorption was inhibited resulting from LPS and the size of the resorption cavity that was formed by LPS was significantly small; production of collagen (type I collagen fibers) ([2]; 48 hours): a large amount of thick collagen fibers was produced in a fascicular shape and the bone surface was densely covered; concentration indicating the same level of the inhibitory action of the bone resorption in the bone organ culture system ([2]; bone organ culture system): 100 µM; production of the type I collagen / bone matrix ([2]; 48 hours): significantly promoted production of the bone matrix; also recorded: significantly increased production of the bone matrix; expression of alkaline phosphatase, type I-α collagen, osteocalcin and bone sialoprotein genes (MC3T3-E1 cells [3]; MPMBP 100 μM (1, 10, 100 μM tested), 3 days (72 hours) (FIG. 10)): promoted gene expression of all of the above; also recorded: increased significantly in all genes
